Data: patent publication US4699928A, “Fluoroallylamine derivatives” (Merrell Dow Pharmaceuticals Inc., priority 1986, dated 1987)

Tests used:
[1] = tested on: brain monoamines and their metabolites; assay: Inhibition of MAO in vivo: brain monoamines and their metabolites (HPLC); design: species or system male Sprague-Dawley rats; details: for DOPAC, brain / HVA, brain / 5HIAA, brain / NE, brain / 5-HT, brain / DA (dopamine), brain: 18 h, ± S.E.M.; for DOPAC, brain: control 80 ± 3; for HVA, brain: control 81 ± 3; for 5HIAA, brain: control 347 ± 8; for NE, brain: control 369 ± 18; for 5-HT, brain: control 1156 ± 52; for DA (dopamine), brain: control 840 ± 27
Protocol: The ability of a compound of Formula I to inhibit MAO can be determined in vivo using brain and heart samples obtained from the ex vivo study reported in Example 9. Monoamines and their deaminated metabolites were determined by HPLC with electrochemical detection by the method of J. Wagner et al, J. Neurochem. 38 1241-1254.
When (Z)-2-(2',4'-dichlorophenoxy)methyl-3-fluoroallylamine is tested according to the above-described procedure, the results given in Tables IV and V are obtained. In these tables the following abbreviations are used: […]

[2] = tested on: heart rate response to p-tyramine; assay: Cheese effect: potentiation of response to intraduodenal p-tyramine, anaesthetized rats; assay type: in vivo, male Sprague-Dawley rats; details: 18 h, p-tyramine i.d.
Protocol: The following test procedures can be employed to assess the potential of a compound of Formula I for producing the "cheese effect": […]
Eighteen hours later the animals are anaesthetized with pentobarbitone (60 mg/kg i.p.), in some instances pithed, and in all cases set up for recording heart rate and blood pressure by standard techniques.

MAO [3] = assay: Time-dependent kinetics and irreversibility of MAO inhibition, rat brain mitochondria, 14C p-tyramine; assay type: biochemical
Protocol: (B) The compounds of Formula I can be tested to determine whether or not the MAO inhibition follows time-dependent kinetics by the procedure described below:
Mitochondria are prepared from rat brain by homogenation in phosphate buffer (0.1 M, pH 7.2) followed by differential centrifugation. The mitochondria are suspended in the same buffer, the test compound is added at the desired concentration, and the system is incubated. At different time intervals, aliquots are taken and MAO activity is measured using ^14 C p-tyramine (a mixed substrate) as the substrate (See A. Christmas et al., supra).

MAO [4] = assay: Inhibition of MAO ex vivo, p-tyramine as substrate; assay type: in vivo, male Sprague-Dawley rats; details: 18 h, 14C p-tyramine
Protocol: The ability of a compound of Formula I to inhibit MAO can be determined ex vivo by the following procedure:
The test compound is administered orally (p.o.) to 300-350 g male Sprague-Dawley rats (Charles River, France) and the animals are killed 18 hours after treatment. The brain, heart, liver and/or duodenum is removed and either a crude homogenate or a mitochondrial fraction, described in Example 5, Part (A), is prepared. MAO activity is determined in the homogenates using ^14 C p-tyramine, as the substrate. Table III gives the results of the testing of (Z)-2-(2',4'-dichlorophenoxy)methyl-3-fluoroallylamine according to the above described procedure. Selectivity can be determined by repeating the above-described test using either ^14 C […] (for MAO-A) or ^14 C phenethylamine (for MAO-B) as the substrate for determining the percentage inhibition.

## NC/C(=C/F)COc1ccc(Cl)cc1Cl [(z)-2-(2',4'-dichlorophenoxy)methyl-3-fluoroallylamine]
[1]; 1 mg/kg p.o.
  DOPAC, brain: 75 ± 11 ng/g
  HVA, brain: 94 ± 15 ng/g
  5HIAA, brain: 371 ± 19 ng/g
  NE, brain: 386 ± 18 ng/g
  5-HT, brain: 1218 ± 66 ng/g
[1]; 1 mg/kg p.o., p <0.05
  DA (dopamine), brain: 945 ± 35 ng/g
[1]; 2.5 mg/kg p.o.
  DOPAC, brain: 70 ± 6 ng/g
  HVA, brain: 75 ± 7 ng/g
  5HIAA, brain: 337 ± 15 ng/g
  NE, brain: 409 ± 4 ng/g
  DA (dopamine), brain: 896 ± 31 ng/g
  5-HT, brain: 1119 ± 64 ng/g
[1]; 5 mg/kg p.o.
  HVA, brain: 83 ± 7.2 ng/g
  NE, brain: 415 ± 18 ng/g
  5-HT, brain: 1340 ± 116 ng/g
[1]; 5 mg/kg p.o., p <0.01
  DOPAC, brain: 65 ± 3 ng/g
[1]; 5 mg/kg p.o., p <0.02
  DA (dopamine), brain: 943 ± 21 ng/g
[1]; 5 mg/kg p.o., p <0.05
  5HIAA, brain: 379 ± 10 ng/g
[1]; 10 mg/kg p.o.
  5HIAA, brain: 343 ± 14 ng/g
  DA (dopamine), brain: 875 ± 16 ng/g
  5-HT, brain: 1297 ± 100 ng/g
[1]; 10 mg/kg p.o., p <0.02
  HVA, brain: 53 ± 10 ng/g
  NE, brain: 439 ± 15 ng/g
[1]; 25 mg/kg dose
  5-HT, in words: Significant increases
[1]; 25 mg/kg p.o.
  HVA, brain: 75 ± 8 ng/g
[1]; 25 mg/kg p.o., p <0.001
  NE, brain: 496 ± 12 ng/g
  DA (dopamine), brain: 1087 ± 29 ng/g
  5-HT, brain: 1623 ± 48 ng/g
[1]; 25 mg/kg p.o., p <0.005
  5HIAA, brain: 404 ± 12 ng/g
[1]; 25 mg/kg p.o., p <0.01
  DOPAC, brain: 54 ± 6 ng/g
[1]; 10 and 25 mg/kg dose
  Norepinephrine (NE) concentrations, in words: increased significantly
[1]; following the 5 mg/kg dose
  dihydroxyphenylacetic acid in the brain, in words: significant reductions
  dopamine in the brain, in words: increases in dopamine
[1]; lower doses (MAO-B) and higher doses (MAO-A)
  selectivity of action, in words: selectivity of action against MAO-B at the lower doses and a small degree of MAO-A inhibition occurring at the higher doses
[2]; 5 mg/kg by mouth
  Potentiation of heart rate response to p-tyramine: 1.5 fold
[2]; 10 mg/kg by mouth
  Potentiation of heart rate response to p-tyramine: 2.4 fold
[2]; 25 mg/kg by mouth
  Potentiation of heart rate response to p-tyramine: 2.0 fold
MAO [3]; 14C p-tyramine
  MAO inhibitory activity versus time of incubation: increased as a function of time of incubation
MAO [3]; dialysis against phosphate buffer (24 hours)
  irreversibility of MAO inhibition: irreversible
MAO [3]; versus concentration of inhibitor
  initial rate of decrease of activity: increased with increasing concentration of inhibitor
MAO [4]; 1 mg/kg po
  % Inhibition, Brain (1): 41%
  % Inhibition, Duodenum (1): 10%
  % Inhibition, Heart (1): 27%
  % Inhibition, Liver (1): 0%
MAO [4]; 2.5 mg/kg po
  % Inhibition, Brain (1): 23%
  % Inhibition, Duodenum (1): 26%
  % Inhibition, Heart (1): 0%
  % Inhibition, Liver (1): 9%
MAO [4]; 5 mg/kg po
  % Inhibition, Brain (1): 34%
  % Inhibition, Duodenum (1): 55%
  % Inhibition, Heart (1): 0%
  % Inhibition, Liver (1): 21%
MAO [4]; 10 mg/kg po
  % Inhibition, Brain (1): 55%
  % Inhibition, Duodenum (1): 57%
  % Inhibition, Heart (1): 0%
  % Inhibition, Liver (1): 25%
MAO [4]; 25 mg/kg po
  % Inhibition, Brain (1): 73%
  % Inhibition, Duodenum (1): 65%
  % Inhibition, Heart (1): 32%
  % Inhibition, Liver (1): 55%
